{"source": "patent US11369615B2", "about": "“Agent for improving mitochondrial dysfunction, preventative or therapeutic agent for diseases or symptoms caused by mitochondrial dysfunction, and applications therefor” (JICHI MEDICAL UNIVERSITY, priority 2017, dated 2022)", "key": {"[1]": {"conditions": "stated as known; cited from earlier work"}, "[2]": {"tested_on": "ME54 cells derived from a patient with Leigh syndrome", "assay": "Oxidative stress test (BSO-induced cell death), ME54 cells", "assay_type": "cell-based, human", "conditions": "BSO plus agent 1 μM, 48 hours after addition", "source_text": "(§1) In mitochondrial dysfunction, for example, ATP production is damaged and/or oxidative stress increases, with the result that apoptosis of cells is induced. Because of this, individuals having mitochondrial dysfunction are reported to be less tolerant to oxidative stress, compared to normal individuals (Shrader W D et al., Bioorg Med Chem Lett., Jun. 15, 2011, Vol. 21 (12), p. 3693-8, doi: 10.1016/j.bmc1.2011.04.085. electronically published on Apr. 24, 2011, PubMed PMID: 21600768). Then, oxidative stress was given to the skin fibroblasts of individual patients mentioned above to induce apoptosis. Under the conditions, compounds of the drug library were each administered to the cells. In this manner, a primary screening was carried out. Then, candidate pharmaceutical agents selected by the primary screening were subjected to a secondary screening, which is an in-vitro evaluation test such as a mitochondrial function evaluation test and a microarray expression analysis.\n(§2) The oxidative stress test is a known pharmaceutical agent screening method, which was carried out under the conditions where cell death was induced by addition of L-buthionine-(S,R)-sulfoximine (BSO) (Arce P M et al., ACS Med Chem Lett., May 31, 2011, Vol. 2 (8), p. 608-13, doi: 10.1021/m1200095w. eCollection, Aug. 11, 2011, PubMed PMID: 24900356; PubMed Central PMCID: PMC4018135). BSO inhibits synthesis of glutathione serving as an antioxidant in the cells to deplete glutathione, raising the level of active oxygen within the cells. The procedure of the test is as follows. The cells to be used in the test were seeded in a 96-well plate for cell culture so as to satisfy a concentration of 5,000 cells/well and 80 μL medium/well and cultured in a CO2 incubator (37° C., 5% CO2) for 24 hours. Twenty four hours after the culture, BSO and each of the pharmaceutical agents (final concentration of 1 μM) of the drug library were together added to the cells within the wells. Forty eight hours after the addition, survival rates were determined. The survival rates were determined by measuring absorbance of formazan generated by use of cell count reagent SF (Nacalai Tesque, Inc.). As a positive control compound, idebenone (Non Patent Literature 1) approved as a therapeutic agent for Leber's hereditary optic neuritis in Europe, was used in the same concentration.\n(§3) An oxidative stress test was carried out by using three fibroblast cell lines derived from patients with a mitochondrial disease and provided in 1-2. The pharmaceutical agent showing the survival rate equal to or more than that of idebenone, a positive control compound, was determined to be effective. The results of oxidative stress test of pharmaceutical agents of the drug library to KCMC10 cells are shown in FIG. 2; the results of oxidative stress test of pharmaceutical agents of the drug library to ME54 cells are shown in FIG. 3; and the results of oxidative stress test of pharmaceutical agents of the drug library to ME110 cells are shown in FIG. 4."}, "[3]": {"tested_on": "ME110 cells derived from a patient with MELAS", "assay": "Oxidative stress test (BSO-induced cell death), ME110 cells", "assay_type": "cell-based, human", "conditions": "BSO plus agent 1 μM, 48 hours after addition", "source_text": "as §1, §2, §3"}, "[4]": {"tested_on": "KCMC10 cells derived from a patient with Leigh syndrome", "assay": "Oxidative stress test (BSO-induced cell death), KCMC10 cells", "assay_type": "cell-based, human", "conditions": "BSO plus agent 1 μM, 48 hours after addition", "source_text": "as §1, §2, §3"}}, "note": "Counter-ions that a name gives are not always drawn.", "data": [{"smiles": "CN1CCc2cccc3c2C1Cc1ccc(O)c(O)c1-3", "note": "(stereo not drawn) [(I-1)]", "values": [{"measurement": "ability to pass through the blood-brain barrier", "setting": "[1]", "result": "known to be able to pass through the blood-brain barrier"}]}, {"smiles": "CN1CC2c3ccccc3Oc3ccc(Cl)cc3C2C1", "note": "(stereo not drawn) [(I-2)]", "values": [{"measurement": "ability to pass through the blood-brain barrier", "setting": "[1]", "result": "known to be able to pass through the blood-brain barrier"}]}, {"smiles": "CN1CCN(CCCN2c3ccccc3Sc3ccc(Cl)cc32)CC1", "note": "[Pharmaceutical agent No. 35, Prochlorperazine dimaleate]", "values": [{"measurement": "survival rate equal to or more than that of idebenone (determined to be effective)", "setting": "[2]", "result": "effective"}, {"measurement": "survival rate equal to or more than that of idebenone (determined to be effective)", "setting": "[3]", "result": "effective"}, {"measurement": "survival rate equal to or more than that of idebenone (determined to be effective)", "setting": "[4]", "result": "effective"}, {"measurement": "ability to pass through the blood-brain barrier", "setting": "[1]", "result": "known to be able to pass through the blood-brain barrier"}]}, {"smiles": "CN(C)CCCN1c2ccccc2Sc2ccccc21", "note": "[Pharmaceutical agent No. 56, Promazine hydrochloride]", "values": [{"measurement": "survival rate equal to or more than that of idebenone (determined to be effective)", "setting": "[2]", "result": "effective"}, {"measurement": "survival rate equal to or more than that of idebenone (determined to be effective)", "setting": "[3]", "result": "effective"}, {"measurement": "survival rate equal to or more than that of idebenone (determined to be effective)", "setting": "[4]", "result": "effective"}, {"measurement": "ability to pass through the blood-brain barrier", "setting": "[1]", "result": "known to be able to pass through the blood-brain barrier"}]}, {"smiles": "CN1C[C@@H]2c3ccccc3Oc3ccc(Cl)cc3[C@H]2C1", "note": "[Pharmaceutical agent No. 105, Asenapine maleate]", "values": [{"measurement": "survival rate equal to or more than that of idebenone (determined to be effective)", "setting": "[2]", "result": "effective"}, {"measurement": "survival rate equal to or more than that of idebenone (determined to be effective)", "setting": "[3]", "result": "effective"}, {"measurement": "survival rate equal to or more than that of idebenone (determined to be effective)", "setting": "[4]", "result": "effective"}, {"measurement": "ability to pass through the blood-brain barrier", "setting": "[1]", "result": "known to be able to pass through the blood-brain barrier"}]}, {"smiles": "Cc1cc2c(s1)Nc1ccccc1N=C2N1CCN(C)CC1", "note": "[Pharmaceutical agent No. 118, Olanzapine]", "values": [{"measurement": "survival rate equal to or more than that of idebenone (determined to be effective)", "setting": "[2]", "result": "effective"}, {"measurement": "survival rate equal to or more than that of idebenone (determined to be effective)", "setting": "[3]", "result": "effective"}, {"measurement": "survival rate equal to or more than that of idebenone (determined to be effective)", "setting": "[4]", "result": "effective"}]}, {"smiles": "c1ccc2c(c1)Nc1ccccc1S2", "note": "[Pharmaceutical agent No. 129, Phenothiazine]", "values": [{"measurement": "survival rate equal to or more than that of idebenone (determined to be effective)", "setting": "[2]", "result": "effective"}, {"measurement": "survival rate equal to or more than that of idebenone (determined to be effective)", "setting": "[3]", "result": "effective"}, {"measurement": "survival rate equal to or more than that of idebenone (determined to be effective)", "setting": "[4]", "result": "effective"}, {"measurement": "ability to pass through the blood-brain barrier", "setting": "[1]", "result": "known to be able to pass through the blood-brain barrier"}]}]}
